# Experiments:
# Format in all cases: in vivo
# Plasmopara viticola = test: Controlling effect against grape downy mildew (leaf disk immersion, 250 ppm); details: grape leaf disk immersed 3 hours, 10th day after inoculation, untreated 60 to 70%
# Method: The developed leaf of grape seedling (breed: Cabernet Sauvignon) grown in 1/2000 a pot was cut and prepared a leaf disk having a diameter of 32 mm. A solution of the compound in acetone was diluted with water to 250 ppm, and the leaf disk was immersed for 3 hours. The disk was taken from the agent solution, subjected to air-drying, and then inoculated by spray with a zoosporangia suspension of Plasmopara viticola. The test disk was incubated at 18° C. for 12 hours in a light-dark light cycle. On the 10th day after inoculation the infected area rate for the leaf disk was examined. Evaluation was carried out by the following criteria. The infected area rate for the untreated groups in the examination was 60 to 70%.
# Phytophthora infestans = details: 250 ppm spray, tomato seedling 4-leaf stage, 4th day after inoculation; untreated not less than 60%
# [1] = system: Pseudoperonospora cubensis; test: Controlling effect against cucumber downy mildew (spray on cucumber seedlings, 250 ppm); details: 250 ppm spray, cucumber seedling 1-leaf stage, 7th day after inoculation; untreated 60 to 80%
# Method: A solution of the compound in acetone was diluted with water to 250 ppm, and the solution was sprayed to the cucumber seedling (breed: Sagamihangbak, two per plastic pot having a diameter of 7.5 cm) at 1-leaf stage in an amount of 10 mL of the compound/pot. After air-drying, the pot was transferred to a moist chamber provided in the greenhouse, and inoculated by spray with a zoosporic suspension of Pseudoperonospora cubensis. On the 7th day after inoculation the infected area rate for the leaves was examined. Evaluation was carried out by the following criteria.
# The infected area rate for untreated groups in the examination was 60 to 80%.
Structure (SMILES),Effect: controlling effect against grape downy mildew (infected area rate) (Plasmopara viticola),Effect: controlling effect against tomato late blight (infected area rate) (Phytophthora infestans),Effect: controlling effect against cucumber downy mildew (infected area rate) [1]
"Cc1ccc(C(=O)NC[C@@H](NC(=O)C(NC(=O)OC(C)(C)C)C2CCOC2)C(C)C)cc1 (mixture of isomers) [Compound No. 69, N-[2-methyl-1-(S)-[[(4-methylbenzoyl)amino]methyl]propyl]2-(RS)-[(1,1-dimethylethyloxycarbonyl)amino]-2-(tetrahydrofuran-3-yl)acetamide]",B (the infected area rate of 5% to less than 50%),A (Infected area rate of less than 5%),A (the infected area rate of less than 5%)
"Cc1ccc(C(=O)NCC(NC(=O)[C@@H](NC(=O)OC(C)C)C(C)C)C(C)C)cc1 (mixture of isomers) [Compound No. 151, N-[2-methyl-1-(RS)-[[(4-methylbenzoyl)amino]methyl]propyl]3-methyl-2-(S)-[(1-methylethyloxycarbonyl)amino]butyramide]",–,A (Infected area rate of less than 5%),B (the infected area rate of 5% to less than 50%)
"CC(CNC(=O)c1cc2ccccc2o1)NC(=O)[C@@H](NC(=O)OC(C)(C)C)C(C)C (mixture of isomers) [Compound No. 652, N-[2-(RS)-[[(benzofuran-2-carbonyl)amino]-1-methyl]ethyl][3-methyl-2-(S)-[N-(1,1-dimethylethyloxycarbonyl)amino]]butyramide]",B (the infected area rate of 5% to less than 50%),A (Infected area rate of less than 5%),A (the infected area rate of less than 5%)
"CC(C)OC(=O)N[C@H](C(=O)N[C@H](CNC(=O)C1COc2ccccc2O1)C(C)C)C(C)C (mixture of isomers) [Compound No. 899, N-[2-methyl-1-(S)-[[[(1,4-benzodioxane)-2-(RS)-carbonyl]amino]methyl]propyl][3-methyl-2-(S)-[N-(1-methylethyloxycarbonyl)amino]]butyramide]",B (the infected area rate of 5% to less than 50%),A (Infected area rate of less than 5%),A (the infected area rate of less than 5%)
"Cc1ccc(C(=O)NC[C@@H](NC(=O)[C@@H](NC(=O)OC(C)(C)C)c2ccccc2)C(C)C)cc1 [Compound No. 60, N-[2-methyl-1-(S)-[[(4-methylbenzoly)amino]methyl]propyl]2-(S)-[(1,1-dimethylethyloxycarbonyl)amino]-2-phenyl acetamide]",–,B (Infected area rate of 5% to less than 50%),–
"Cc1ccccc1C(=O)NC[C@@H](NC(=O)[C@@H](NC(=O)OC(C)C)C(C)C)C(C)C [Compound No. 143, N-[2-methyl-1-(S)-[[(2-methylbenzoyl)amino]methyl]propyl]3-methyl-2-(S)-[(1-methylethyloxycarbonyl)amino]butyramide]",–,A (Infected area rate of less than 5%),B (the infected area rate of 5% to less than 50%)
"CC(C)COC(=O)N[C@H](C(=O)N[C@H](CNC(=O)c1ccc(Cl)cc1)C(C)C)C(C)C [Compound No. 205, N-[1-(S)-[[(4-chlorobenzoyl)amino]methyl]-2-methylpropyl]3-methyl-2-(S)-[(2-methylpropyloxycarbonyl)amino]butyramide]",B (the infected area rate of 5% to less than 50%),A (Infected area rate of less than 5%),A (the infected area rate of less than 5%)
"Cc1ccc(C(=O)N[C@@H](CNC(=O)[C@@H](NC(=O)OCC(C)C)C(C)C)C(C)C)cc1 [Compound No. 274, N-[3-methyl-2-(R)-[(4-methylbenzoyl)amino]butyl]3-methyl-2-(S)-[(2-methylpropyloxycarbonyl)amino]butyramide]",–,A (Infected area rate of less than 5%),B (the infected area rate of 5% to less than 50%)
"Cc1ccc(C(=O)N[C@@H](CNC(=O)[C@@H](NC(=O)OCc2ccccc2)C(C)C)C(C)C)cc1 [Compound No. 276, N-[3-methyl-2-(R)-[(4-methylbenzoyl)amino]butyl]2-(S)-[(benzyloxycarbonyl)amino]-3-methylbutyramide]",–,B (Infected area rate of 5% to less than 50%),–
"Cc1ccc(C(=O)N[C@H](CNC(=O)[C@@H](NC(=O)OCc2ccccc2)C(C)C)C(C)C)cc1 [Compound No. 281, N-[3-methyl-2-(S)-[(4-methylbenzoyl)amino]butyl]2-(S)-[(benzyloxycarbonyl)amino]-3-methylbutyramide]",–,B (Infected area rate of 5% to less than 50%),B (the infected area rate of 5% to less than 50%)
"CC[C@H](C)[C@@H](CNC(=O)c1ccc(C)cc1)NC(=O)[C@@H](NC(=O)OC)C(C)C [Compound No. 306, N-[2-(S)-methyl-1-(S)-[[(4-methylbenzoyl)amino]methyl]butyl]3-methyl-2-(S)-[(methyloxycarbonyl)amino]butyramide]",A (the infected area rate of less than 5%),A (Infected area rate of less than 5%),A (the infected area rate of less than 5%)
"CC(C)OC(=O)N[C@H](C(=O)NC[C@@H](NC(=O)c1cc2ccccc2o1)C(C)C)C(C)C [Compound No. 675, N-[[2-(S)-[(benzofuran-2-carbonyl)amino]-3-methyl]butyl][2-(S)-[(1-methylethyloxycarbonyl)amino]-3-methyl]butyramide]",–,A (Infected area rate of less than 5%),B (the infected area rate of 5% to less than 50%)
"CC(C)[C@H](NC(=O)OCc1ccccc1)C(=O)NC[C@@H](NC(=O)c1cc2ccccc2o1)C(C)C [Compound No. 678, N-[3-methyl-2-(S)-[(benzofuran-2-carbonyl)amino]butyl]2-(S)-[(benzyloxycarbonyl)amino]-3-methylbutyramide]",B (the infected area rate of 5% to less than 50%),B (Infected area rate of 5% to less than 50%),A (the infected area rate of less than 5%)
"CCOC(=O)N[C@H](C(=O)N[C@H](CNC(=O)c1cc2ccccc2o1)C(C)(C)C)C(C)C [Compound No. 714, N-[1-(S)-[[(benzofuran-2-carbonyl)amino]methyl)-2,2-dimethylpropyl][3-methyl-2-(S)-[N-(ethyloxycarbonyl)amino]]butyramide]",A (the infected area rate of less than 5%),A (Infected area rate of less than 5%),A (the infected area rate of less than 5%)
"CCOC(=O)N[C@H](C(=O)N[C@H](CNC(=O)c1cc2ccccc2o1)C(C)C)C(C)C [Compound No. 772, N-[2-methyl-1-(S)-[[(benzofuran-2-carbonyl)amino]methyl]propyl][3-methyl-2-(S)-[N-(ethyloxycarbonyl)amino]]butyramide]",A (the infected area rate of less than 5%),A (Infected area rate of less than 5%),A (the infected area rate of less than 5%)
"CC(C)OC(=O)N[C@H](C(=O)N[C@H](CNC(=O)c1cc2ccccc2o1)C(C)C)C(C)C [Compound No. 775, N-[2-methyl-1-(S)-[[(benzofuran-2-carbonyl)amino]methyl]propyl][3-methyl-2-(S)-[N-(1-methylethyloxycarbonyl)amino]]butyramide]",A (the infected area rate of less than 5%),A (Infected area rate of less than 5%),A (the infected area rate of less than 5%)
"CC(C)[C@H](NC(=O)OCC1CCCO1)C(=O)N[C@H](CNC(=O)c1cc2ccccc2o1)C(C)C (stereo partly drawn) [Compound No. 786, N-[1-(S)-[[(benzofuran-2-carbonyl)amino]methyl]-2-methylpropyl]3-methyl-2-(S)-[[(tetrahydrofuran-2-methyl)oxycarbonyl]amino]butyramide]",–,A (Infected area rate of less than 5%),A (the infected area rate of less than 5%)

# Source: patent US20070244153A1 (priority 2004, published 2007)
